Results published in EP3827825A1, “USE OF 3, 4-DIARYLPYRAZOLES AS ANTIBACTERIAL AGENTS” (Wageningen Universiteit, priority 2019, dated 2021).
Converted amounts (≈) assume the structure as drawn. Read-outs that look alike come from different tables or passages of the source.

Assays:
S. aureus Newman = assay: Minimal inhibitory concentration (MIC), double-dilution in broth, OD600; format: cell-based, Staphylococcus aureus Newman; details: unit assumed
Description: (§1) In short, a stock solution of 5 mg/mL of HKIs in DMSO was made. This stock was diluted to 50 µg/mL in broth in a 96 well plate. Dilutions were made (factor 2) directly in the plate with a multi-channel pipet. Bacteria cultured in suspension overnight were then added to the plate (except negative control) and the plate was incubated for 24 hours. After 24 hours the OD600 was measured using a spectrophotometer. A positive control (with bacteria, without HKI) was also measured on each plate.
Bacterial strains used in this study for antibacterial susceptibility testing (Table S2) were propagated using standard microbiological procedures. Minimal inhibitory concentrations (MICs) were determined following a standard double-dilution method (42), 73. […] For M. marinum, MICs were determined in Middlebrook 7H9 broth (Difco) and MICs were determined after 3 days incubation at 30 °C.
(§2) Grow the bacterial colonies to be tested from single colonies on an agar plate in LB broth or suitable bacterial growth medium overnight at 37°C. Prepare a 5 mg/mL stock solution of compounds to be tested in DMSO. One 96-well plate per bacterial strain was prepared. First, put 50 uL of medium to each well. Add 48 µL of medium to all wells in row A. Pipet 2 µL of antimicrobial master stock into the top well (row A). Beware, the antimicrobial concentration will be diluted 2x after adding the bacterial culture. Total volume in each well will be 100 µL. In A11, pipet 2 µL of DMSO. Make a serial dilution from row A to row H, pipetting 50 µL from the previous row into the new one. Mix well by pipetting up and down. Discard the last 50 µL so that there is 50 µl in each well In a clean, new plastic pipetting cup, dilute the overnight bacterial culture 100 times. Add 100 µL of bacterial overnight culture to 9900 µL of medium. Mix the suspension well. Once the serial dilutions are complete for all antimicrobial compounds, add 50 µL of diluted overnight bacterial culture to each well (except column 12). Mix by pipetting or put the plate on the shaker. Per 2 plates, close with parafilm around the edges and place in the incubator overnight. After overnight culturing, measure bacterial growth on the SpectraMax. The lowest concentration where no growth is observed is the MIC. To determine the MIB pipette 5 µL from each well of the 96 well plate where now growth was observed on to an LB agar plate, without antimicrobial. Put the plates in the incubator to grow overnight. The minimal concentration where no growth can be seen on the agar plate is the MBC.

S. suis = assay: as above; format: cell-based, Streptococcus suis; details: unit assumed
Description: as §1, with “each plate. The MICs were not determined in duplo/triplicate in the same experiment, however, the MICs of several HKIs were measured in different experiments and no major differences (max. 1x dilution) were found in the MICs between the experiments.” for “each plate.”
(§3) Bacterial strains used in this study for antibacterial susceptibility testing (Table S2) were propagated using standard microbiological procedures. Minimal inhibitory concentrations (MICs) were determined following a standard double-dilution method (42), 73. MICs were recorded as the lowest concentration of the compound where no visible growth was observed. After plating the dilutions around the MIC or growing them in fresh MH media, minimal bactericidal concentration (MBC) was recorded as the lowest concentration of the compound at which no colonies were formed or no growth was observed, respectively. For M. marinum, MICs were determined in Middlebrook 7H9 broth (Difco) and MICs were determined after 3 days incubation at 30 °C.
as §2

P. multocida = assay: as above; format: cell-based, Pasteurella multocida; details: unit assumed
Description: as §1, with “each plate. The MICs were not determined in duplo/triplicate in the same experiment, however, the MICs of several HKIs were measured in different experiments and no major differences (max. 1x dilution) were found in the MICs between the experiments.” for “each plate.”
as §3, §2

M. marinum = assay: Minimal inhibitory concentration (MIC), Middlebrook 7H9 broth, 3 days at 30 °C; format: cell-based, Mycobacterium marinum; details: unit assumed
Description: as §1, with “each plate. The MICs were not determined in duplo/triplicate in the same experiment, however, the MICs of several HKIs were measured in different experiments and no major differences (max. 1x dilution) were found in the MICs between the experiments.” for “each plate.”
as §3, §2

E. coli JW5503 = format: cell-based, Escherichia coli; details: unit assumed
Description: as §1, with “each plate. The MICs were not determined in duplo/triplicate in the same experiment, however, the MICs of several HKIs were measured in different experiments and no major differences (max. 1x dilution) were found in the MICs between the experiments.” for “each plate.”
as §3, §2

E. faecium Van A = assay: Minimal inhibitory concentration (MIC), double-dilution in broth, OD600; format: cell-based, Enterococcus faecium; details: unit assumed
Description: as §1, with “each plate. The MICs were not determined in duplo/triplicate in the same experiment, however, the MICs of several HKIs were measured in different experiments and no major differences (max. 1x dilution) were found in the MICs between the experiments.” for “each plate.”
as §3, §2

HEK293 = assay: Cell toxicity, Alamar blue assay, 24 hours exposure; format: cell-based; details: Homo sapiens
Description: (§4) Toxicity was primarily determined by measuring cytotoxicity with the Alamar blue assay. In short, cells (HEK293, NRK-52E and Caco-2) were plated in 96-well plates and cultured overnight. HKI compounds were diluted to concentrations ranging from 0.39 to 500 µg/mL in serum-free medium and added to the cells.
(§5) After exposure, cells were incubated for 24 hours. Experiments were mostly performed by single measurement. […] After 24 hours HKIs were removed from the cells and Alamar blue was added, incubated for 45 minutes and fluorescence was measured on a spectrophotometer. Alamar blue measures the conversion of blue, low fluorescent resazurin into high fluorescent pink resorufin. This conversion can only be made in viable mitochondria in viable cells and therefore this dye provides a measure for cytotoxicity.

NRK-52E = assay: as above; format: cell-based; details: Rattus norvegicus
Description: as §4, §5

[1] = HEK293, read-out: IC50 HEK293 (50 mg/mL stock)
[2] = read-out: IC50 NRK-52E (50 mg/mL stock)
[3] = HEK293, read-out: IC50 HEK293 (5 mg/mL stock)

Compound | MIC S. aureus Newman (S. aureus Newman) [µg/mL] | MIC S. suis (S. suis) [µg/mL] | MIC P. multocida (P. multocida) [µg/mL] | MIC M. marinum (M. marinum) [µg/mL] | MIC E. coli JW5503 (E. coli JW5503) [µg/mL] | MIC E. faecium Van A (E. faecium Van A) [µg/mL] | IC50 (HEK293; [1]) [µg/mL] | IC50 (NRK-52E; [2]) [µg/mL] | IC50 (HEK293; [3]) [µg/mL] | IC50 (HEK293; read-out: IC50 HEK293 (50 mg/mL stock), HEK293, 50 mg/mL stock) [µg/mL] | IC50 (NRK-52E; read-out: IC50 NRK-52E (50 mg/mL stock), 50 mg/mL stock) [µg/mL]
O=[N+]([O-])c1ccc(COc2ccc(-c3n[nH]c(C(F)(F)F)c3-c3ccc(Br)cc3)c(O)c2)cc1 [May-11, 2-[4-(4-bromophenyl)-5-(trifluoromethyl)-1∼{H}-pyrazol-3-yl]-5-(4-nitrobenzyl)oxyphenol] | 1.56 (≈ 2.92 µM) | 3.13 (≈ 5.86 µM) | > 50 | 12.5 (≈ 23.4 µM) | > 50 | 1.56 (≈ 2.92 µM) | 6.2 (≈ 11.6 µM) | ~3.91 (≈ 7.32 µM) |  |  | 
CCOc1ccc(-c2n[nH]c(C(F)(F)F)c2-c2ccccc2OC)c(O)c1 [May-20, 5-ethoxy-2-[4-(2-methoxyphenyl)-5-(trifluoromethyl)-1∼{H}-pyrazol-3-yl]phenol] | 6.25 (≈ 16.5 µM) | 6.25 (≈ 16.5 µM) | 50 (≈ 132 µM) | 25 (≈ 66.1 µM) | 3.13 (≈ 8.27 µM) | 12.5 (≈ 33 µM) |  | ~17.6 (≈ 46.5 µM) | 2.1 (≈ 5.55 µM) |  | 
NNC(=O)COc1ccc(-c2[nH]nc(C(F)(F)F)c2-c2ccccc2)c(O)c1 [May-25, 2-[3-hydroxy-4-[4-phenyl-5-(trifluoromethyl)-1∼{H}-pyrazol-3-yl]phenoxy]acetohy drazide] | 12.5 (≈ 31.9 µM) |  | 50 (≈ 127 µM) |  | 6.25 (≈ 15.9 µM) | 25 (≈ 63.7 µM) |  | 106 (≈ 271 µM) | 27.6 (≈ 70.3 µM) |  | 
COc1ccc(-c2n[nH]c(C(F)(F)F)c2-c2ccc(Cl)cc2)c(O)c1 [May-16, 2-[4-(4-chlorophenyl)-5-(trifluoromethyl)-1∼{H}-pyrazol-3-yl]-5-methoxy-phenol] | 3.13 (≈ 8.49 µM) | 3.13 (≈ 8.49 µM) | 25 (≈ 67.8 µM) | 50 (≈ 136 µM) | 1.56 (≈ 4.23 µM) |  |  |  | 3.59 (≈ 9.74 µM) |  | 
COc1ccc(-c2n[nH]c(C(F)(F)F)c2-c2ccccc2)c(O)c1 [May-21, 5-methoxy-2-[4-phenyl-5-(trifluoromethyl)-1∼{H}-pyrazol-3-yl]phenol] | 12.5 (≈ 37.4 µM) | 25 (≈ 74.8 µM) | 50 (≈ 150 µM) | > 50 | 3.13 (≈ 9.36 µM) |  | 46.9 (≈ 140 µM) | ~15.6 (≈ 46.8 µM) | 6.47 (≈ 19.4 µM) |  | 
COc1ccc(-c2n[nH]c(C(F)(F)F)c2-c2ccccc2OC)c(O)c1 [May-19, 5-methoxy-2-[4-(2-methoxyphenyl)-5-(trifluoromethyl)-1∼{H}-pyrazol-3-yl]phenol] | 25 (≈ 68.6 µM) | 25 (≈ 68.6 µM) | 50 (≈ 137 µM) | 50 (≈ 137 µM) |  | > 50 |  | 24.1 (≈ 66.1 µM) | 5.74 (≈ 15.8 µM) |  | 
NNC(=O)COc1ccc(-c2n[nH]c(C(F)(F)F)c2-c2ccc(Cl)cc2)c(O)c1 [Sep-24, 2-[4-[4-(4-chlorophenyl)-5-(trifluoromethyl)-1∼{H}-pyrazol-3-yl]-3-hydroxy-phenoxy]acetohydr azide] | 50 (≈ 117 µM) | > 50 | > 50 | > 50 |  | 50 (≈ 117 µM) |  |  |  | 119 (≈ 279 µM) | 104 (≈ 243 µM)
